Data on two compounds can be found in patent US11123341B2, “Butyrylcholinesterase inhibitors for treatment of opioid use disorder” (priority 2019, dated 2021).

The subject of one data set is heroin-induced lethality. The data set is described as follows: Protection of mice against acute toxicity (lethality) of a lethal dose of heroin. The data set is classed as in vivo. Particulars: 10 min before heroin 25 mg/kg IV, n=6. The method, then: (§1) All mice were allowed ad libitum access to food and water and maintained on a 12 h light/12 h dark cycle, with the lights on at 8:00 a.m. at a room temperature of 21-22° C. Experiments were performed in a same colony room in accordance with the Guide for the Care and Use of Laboratory Animals as adopted and promulgated by the National Institutes of Health. The animal protocol was approved by the IACUC (Institutional Animal Care and Use Committee) at the University of Kentucky.
Heroin-induced acute toxicity was characterized in this study by the occurrence of death. […] Following the heroin administration, mice were immediately placed in containers for observation. The presence or absence of death was recorded for 6 hours following heroin administration.
(§2) Heroin-induced acute toxicity was characterized by the lethality (occurrence of death). For the protection experiments, a single dose of ethopropazine was administrated (IV) prior to administration of a lethal dose (LD100) of heroin (e.g. 25 mg/kg, IV). At 10 min after IV administration of ethopropazine or saline (negative control), the mice were given a lethal dose (LD100) of heroin. The protection experiments were performed under various dose conditions (n=6 for each scenario).

For data set [1] the following is noted: 1 mg/kg IV. The protocol: as §2
Data set [2] concerns heroin-induced hyperactivity. The data set is described as follows: Locomotor activity test of heroin-induced hyperactivity. The class given is in vivo, mice. Conditions: 10 mg/kg IV, 10 min prior to heroin 2.5 mg/kg IP; n=8. The method, then:
as §1

In another data set the target is BChE (Homo sapiens, UniProt P06276). Particulars: read-out: IC50 for BChE; cited from earlier work.
BChE, sequence (P06276 29-602): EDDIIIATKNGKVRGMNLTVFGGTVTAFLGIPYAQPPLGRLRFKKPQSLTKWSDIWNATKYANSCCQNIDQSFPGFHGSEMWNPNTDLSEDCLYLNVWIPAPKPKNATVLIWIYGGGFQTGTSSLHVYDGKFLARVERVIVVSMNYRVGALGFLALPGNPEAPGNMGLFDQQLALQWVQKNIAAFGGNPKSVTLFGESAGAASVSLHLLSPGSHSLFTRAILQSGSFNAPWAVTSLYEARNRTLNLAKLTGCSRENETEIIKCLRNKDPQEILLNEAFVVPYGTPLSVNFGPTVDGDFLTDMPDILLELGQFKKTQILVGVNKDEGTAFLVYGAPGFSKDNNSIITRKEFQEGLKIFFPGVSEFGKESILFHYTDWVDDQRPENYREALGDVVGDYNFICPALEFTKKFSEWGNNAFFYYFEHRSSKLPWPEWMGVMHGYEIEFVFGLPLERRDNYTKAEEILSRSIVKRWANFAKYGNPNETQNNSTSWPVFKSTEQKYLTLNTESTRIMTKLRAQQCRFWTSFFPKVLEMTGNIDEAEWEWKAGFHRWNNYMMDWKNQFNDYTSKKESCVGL

For `O=C1CC[C@@]2(O)[C@H]3Cc4ccc(O)c5c4[C@@]2(CCN3CC2CC2)[C@H]1O5` [naltrexone], the “protection against heroin-induced lethality” value with heroin-induced lethality (naltrexone 0.3 mg/kg IV) is reported as “partial protection”. Besides, in data set [1], the “adverse effect observed in mice” value is “not able to stand and could hardly move at all”.

`CCN(CC)C(C)CN1c2ccccc2Sc2ccccc21` (stereo not drawn) [ethopropazine]: the “effect on heroin-induced hyperactivity (total distance traveled)” value in data set [2] is “significantly attenuated heroin-induced hyperactivity”. Further, the “protection against heroin-induced lethality” value in the data set with heroin-induced lethality (ethopropazine 1 mg/kg IV) is given as “partial protection”; in the data set on heroin-induced lethality (ethopropazine 10 mg/kg IV) it was “protected all mice”. Moreover, the 50% inhibitory concentration (IC50) on BChE is 210 to 300 nM.

As a reminder, the IC50 is the concentration needed to halve the response being measured.
